Measured values as given in BindingDB's records for patent US10961236 (Astrazeneca, 2021).

Target: T1, Phosphatidylinositol 4,5-bisphosphate 3-kinase catalytic subunit gamma isoform [144-1102] (Homo sapiens, UniProt P48736)
T1 construct: 144-1102
Assay: Enzymatic Activity Assay
Experimental: Routinely, inhibitors were pre-incubated with 3 μl of enzyme for 15 min prior to the addition of 2 μl substrate mixture for a further 60 min enzyme reaction. The phosphorylation was stopped with the addition of 3 μl ADP-Glo reagent (stop solution) followed by a 40 min incubation. Prior to detection 6 μl of ADP-Glo Kinase Detection Reagent was added and the plates were read in a micro plate reader using a Luminescence filter. All additions were followed by a short centrifugation step.

T1 sequence (P48736 144-1102): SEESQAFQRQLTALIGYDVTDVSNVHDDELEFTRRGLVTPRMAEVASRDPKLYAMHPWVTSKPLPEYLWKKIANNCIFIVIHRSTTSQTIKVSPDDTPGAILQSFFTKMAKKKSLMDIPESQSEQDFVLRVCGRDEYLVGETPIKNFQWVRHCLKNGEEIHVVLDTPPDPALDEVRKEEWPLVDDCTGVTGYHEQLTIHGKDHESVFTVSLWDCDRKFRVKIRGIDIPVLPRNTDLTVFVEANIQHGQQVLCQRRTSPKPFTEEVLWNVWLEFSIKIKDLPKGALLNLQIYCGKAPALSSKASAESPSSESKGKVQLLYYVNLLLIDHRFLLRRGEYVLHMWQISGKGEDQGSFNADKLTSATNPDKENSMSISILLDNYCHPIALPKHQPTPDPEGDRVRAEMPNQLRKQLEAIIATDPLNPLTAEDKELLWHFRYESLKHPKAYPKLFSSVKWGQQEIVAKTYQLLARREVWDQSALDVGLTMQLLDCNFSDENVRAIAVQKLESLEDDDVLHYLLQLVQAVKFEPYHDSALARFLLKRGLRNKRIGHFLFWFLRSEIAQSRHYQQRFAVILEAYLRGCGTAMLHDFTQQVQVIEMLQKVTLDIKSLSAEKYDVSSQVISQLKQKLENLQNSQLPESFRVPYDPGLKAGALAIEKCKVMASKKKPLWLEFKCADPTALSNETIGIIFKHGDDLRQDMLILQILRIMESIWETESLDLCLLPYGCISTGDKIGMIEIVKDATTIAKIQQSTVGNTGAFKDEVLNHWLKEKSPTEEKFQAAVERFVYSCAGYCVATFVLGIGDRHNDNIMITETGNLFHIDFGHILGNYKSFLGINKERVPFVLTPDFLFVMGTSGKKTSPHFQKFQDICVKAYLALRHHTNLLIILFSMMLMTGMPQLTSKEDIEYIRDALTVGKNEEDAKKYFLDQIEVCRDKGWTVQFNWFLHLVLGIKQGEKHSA

Q: `CC[C@H](C)N1Cc2cc(-c3sc(Nc4cccc(N5CCCOC5=O)n4)nc3C)cc(S(=O)(=O)NC)c2C1=O` [US10961236, Example 61] was tested. Which IC50 did it give?
A: 1 nM
